Data: publication PMC13308190, “Endothelial progenitor cell susceptibility to DNA damaging and DDR-modulating compounds determines endothelial differentiation accuracy” (Stem Cell Research & Therapy, 2026)

Columns and labels:
Format in all cases: cell-based, mouse
[1] = tested on: EC d4; assay: Nuclear γH2AX / 53BP1 foci (DSB); details: EC d4 48 h, equitoxic concentrations
Procedure: (§1) DNA double-strand breaks were monitored by immunocytochemical detection of nuclear γH2AX and 53BP1 foci. Cells were fixed with 3.7% formaldehyde/PBS (15 min, RT) and permeabilized (0.3% TritonX/PBS; 15 min, RT). […] Cell suspension was mixed with 0.5% low melting point agarose and applied onto glass slides coated with 1.5% agarose. After lysis in alkaline buffer (pH 10, 1 h, 4 °C, protected from light) and DNA denaturation in precooled electrophoresis buffer (pH > 13, 25 min, 4 °C, protected from light) electrophoresis was performed (300 mA, 25 V, 4 °C, 25 min).

[2] = tested on: mESC; assay: Nuclear γH2AX / 53BP1 foci (DSB); details: mESC 24 h, equitoxic concentrations
Procedure: as §1

[3] = tested on: EC d6 (endothelial-like cells); assay: RT-qPCR mRNA expression; details: for Cdkn1a mRNA / Cdkn2a mRNA / Glb1 mRNA / Il6 mRNA / Il8 mRNA / Tp53 mRNA: Fig 7C
Procedure: (§2) Total RNA was purified using the RNeasy Mini Kit (Qiagen, Hilden, Germany). Reverse transcriptase (RT) reaction was performed with the HighCapacity cDNA Reverse Transcription Kit (Applied Biosystems, Darmstadt, Germany) using 900–2000 ng of RNA. Quantitative RT-qPCR analysis was performed using following conditions: (1) 95 °C–10 min; (2) 45 amplification cycles with 95 °C–15 s, 55 °C–15 s, and 72 °C–17 s; (3) 95 °C–1 min, 55 °C–1 min, 65 °C–5 s. If not stated otherwise, analyses were performed in technical triplicates using pooled samples from two independent experiments (each performed with biological duplicates) by use of a CFX96 cycler (BioRad) and the SensiMix SYBR Kit (Bioline, London, UK). The primers used for mRNA expression analyses are listed in Supplementary Table 1. To ensure the specificity of the amplification product, melting curves were recorded at the end of the run. mRNA expression levels were normalized to β-Actin and Gapdh. Relative mRNA expression in mESC or corresponding untreated controls was set to 1.0. Only changes in gene expression of ≤ 0.5- and ≥ 2-fold were considered as biologically relevant.

[4] = tested on: EC d4 (endothelial progenitor cells); assay: RT-qPCR mRNA expression; details: for Ccl2 mRNA / E-selectin mRNA / Icam-1 mRNA / Vcam-1 mRNA / eNos mRNA / iNos mRNA: Fig 8D; for Cdkn1a mRNA / Cdkn2a mRNA / Glb1 mRNA / Il6 mRNA / Il8 mRNA / Tp53 mRNA: Fig 7B
Procedure: as §2
To monitor prototypical functions of endothelial cells, the uptake of fluorescent 1,1-dioctadecyl-3,3,3,3-tetra-methylindocarbocyanine-labeled acetylated LDL (Dil-acLDL) was examined. Briefly, cells were incubated with Dil-acLDL (10 µg/ml, 4 h, 37 °C). After fixation (3.7% cold formaldehyde/PBS (15 min, RT) nuclei were counterstained with DAPI. The uptake of DiI-acLDL was analyzed by fluorescence microscopy (Olympus BX43, 20x objective). Additionally, the response of differentiated EC to inflammatory cytokines was measured. After treatment with a pro-inflammatory cytokine mixture (TNFα/IL-1β, 10 ng/mL) for 1 h, mRNA expression of activated EC markers E-selectin, Icam-1, Vcam-1, Ccl2, eNos, iNos was analyzed (RT-qPCR).

[5] = EC d6 + 10 µM 24 h + 24 h post incubation
[6] = EC d6 + 20 µM 24 h + 24 h post incubation
[7] = EC d4 + 5 µM 48 h, analysed in EC d6
[8] = EC d4 + 5 µM 48 h, then + I/T (IL-1β/TNFα 10 ng/ml, 1 h)
[9] = EC d4 + 15 µM 48 h, analysed day 6, Fig 1C
[10] = EC d4 + 15 µM 48 h, analysed in EC d6
[11] = EC d4 + 15 µM 48 h, then + I/T (IL-1β/TNFα 10 ng/ml, 1 h)

In the case of `O=c1c2ccccc2nc(/C=C/c2cccnc2)n1Cc1ccccc1` [B02], the “DSB numbers (γH2AX / 53BP1 foci)” value [1] is reported as “clear increase”, the “nuclear γH2AX foci” value [2] is reported as “significant increase” and the “Cdkn1a mRNA” value [3, 5] is reported as 1.67 Fold of untreated control. The “Cdkn2a mRNA” value [3, 5] was 0.64 Fold of untreated control, the “Glb1 mRNA” value [3, 5] was 0.88 Fold of untreated control and the “Il6 mRNA” value [3, 5] was 0.85 Fold of untreated control. The “Il8 mRNA” value [3, 5] was 0.52 Fold of untreated control, the “Tp53 mRNA” value [3, 5] was 0.97 Fold of untreated control and the “Cdkn1a mRNA” value [3, 6] was 2.28 Fold of untreated control. The “Cdkn2a mRNA” value [3, 6] was 1.15 Fold of untreated control, the “Glb1 mRNA” value [3, 6] was 1.64 Fold of untreated control and the “Il6 mRNA” value [3, 6] was 1.79 Fold of untreated control. The “Il8 mRNA” value [3, 6] was 0.32 Fold of untreated control, the “Tp53 mRNA” value [3, 6] was 1.27 Fold of untreated control and the “Brca1 mRNA” value ([3]; EC d6 + 20 µM 24 h, Fig 5C) was 0.51 Fold of mESC. The “Chk1 mRNA” value ([3]; EC d6 + 20 µM 24 h, Fig 5C) was 1.27 Fold of mESC, the “Rad51 mRNA” value ([3]; EC d6 + 20 µM 24 h, Fig 5C) was 0.34 Fold of mESC and the “Pgc1a mRNA” value ([3]; EC d6 + 20 µM 24 h, Fig 6D) was 0.27 Fold of untreated control. The “Cldn5 mRNA” value ([3]; EC d6 + 20 µM 24 h, Fig 8C) was 4.85 Fold of EC d4 or d6, the “Ocln mRNA” value ([3]; EC d6 + 20 µM 24 h, Fig 8C) was 1.87 Fold of EC d4 or d6 and the “Tjp1 mRNA” value ([3]; EC d6 + 20 µM 24 h, Fig 8C) was 1.07 Fold of EC d4 or d6. For the same molecule, the “Ccl2 mRNA” value [4, 7] was 2.96 Fold of untreated control, the “E-selectin mRNA” value [4, 7] was 120.46 Fold of untreated control and the “Icam-1 mRNA” value [4, 7] was 3.12 Fold of untreated control. The “Vcam-1 mRNA” value [4, 7] was 0.19 Fold of untreated control, the “eNos mRNA” value [4, 7] was 153.40 Fold of untreated control and the “iNos mRNA” value [4, 7] was 2.01 Fold of untreated control. For the same molecule, the “Ccl2 mRNA” value [4, 8] was 279.77 Fold of untreated control, the “E-selectin mRNA” value [4, 8] was 257.65 Fold of untreated control and the “Icam-1 mRNA” value [4, 8] was 9.69 Fold of untreated control. The “Vcam-1 mRNA” value [4, 8] was 0.36 Fold of untreated control, the “eNos mRNA” value [4, 8] was 184.04 Fold of untreated control and the “iNos mRNA” value [4, 8] was 2.26 Fold of untreated control. The “Cdkn1a mRNA” value ([4]; EC d4 + 5 µM 48 h) was 1.71 Fold of untreated control, the “Cdkn2a mRNA” value ([4]; EC d4 + 5 µM 48 h) was 1.24 Fold of untreated control and the “Glb1 mRNA” value ([4]; EC d4 + 5 µM 48 h) was 1.45 Fold of untreated control. The “Il6 mRNA” value ([4]; EC d4 + 5 µM 48 h) was 0.80 Fold of untreated control, the “Il8 mRNA” value ([4]; EC d4 + 5 µM 48 h) was 0.83 Fold of untreated control and the “Tp53 mRNA” value ([4]; EC d4 + 5 µM 48 h) was 0.98 Fold of untreated control. The “Flk1 mRNA” value [4, 9] was 6.99 Fold of mESC, the “Nanog mRNA” value [4, 9] was 0.03 Fold of mESC and the “Oct4 mRNA” value [4, 9] was 0.01 Fold of mESC. For the same molecule, the “Pecam1 mRNA” value [4, 9] was 0.62 Fold of mESC, the “Tie1 mRNA” value [4, 9] was 29.11 Fold of mESC and the “VE-cad mRNA” value [4, 9] was 484.74 Fold of mESC. For the same molecule, the “Ccl2 mRNA” value [4, 10] was 0.38 Fold of untreated control, the “E-selectin mRNA” value [4, 10] was 126.11 Fold of untreated control and the “Icam-1 mRNA” value [4, 10] was 1.02 Fold of untreated control. The “Vcam-1 mRNA” value [4, 10] was 0.08 Fold of untreated control, the “eNos mRNA” value [4, 10] was 47.93 Fold of untreated control and the “iNos mRNA” value [4, 10] was 0.43 Fold of untreated control. For the same molecule, the “Ccl2 mRNA” value [4, 11] was 84.86 Fold of untreated control, the “E-selectin mRNA” value [4, 11] was 165.16 Fold of untreated control and the “Icam-1 mRNA” value [4, 11] was 2.52 Fold of untreated control. The “Vcam-1 mRNA” value [4, 11] was 0.12 Fold of untreated control, the “eNos mRNA” value [4, 11] was 55.08 Fold of untreated control and the “iNos mRNA” value [4, 11] was 0.33 Fold of untreated control. For the same molecule, the “Brca1 mRNA” value ([4]; EC d4 + 15 µM 48 h, Fig 5C) was 0.27 Fold of mESC, the “Chk1 mRNA” value ([4]; EC d4 + 15 µM 48 h, Fig 5C) was 0.92 Fold of mESC and the “Rad51 mRNA” value ([4]; EC d4 + 15 µM 48 h, Fig 5C) was 0.19 Fold of mESC. The “Pgc1a mRNA” value ([4]; EC d4 + 15 µM 48 h, Fig 6D) was 0.11 Fold of untreated control, the “Cdkn1a mRNA” value ([4]; EC d4 + 15 µM 48 h) was 2.57 Fold of untreated control and the “Cdkn2a mRNA” value ([4]; EC d4 + 15 µM 48 h) was 1.39 Fold of untreated control. For the same molecule, the “Glb1 mRNA” value ([4]; EC d4 + 15 µM 48 h) was 2.55 Fold of untreated control, the “Il6 mRNA” value ([4]; EC d4 + 15 µM 48 h) was 1.35 Fold of untreated control and the “Il8 mRNA” value ([4]; EC d4 + 15 µM 48 h) was 0.85 Fold of untreated control. For the same molecule, the “Tp53 mRNA” value ([4]; EC d4 + 15 µM 48 h) was 0.72 Fold of untreated control, the “Cldn5 mRNA” value ([4]; EC d4 + 15 µM 48 h, Fig 8C) was 0.18 Fold of EC d4 or d6 and the “Ocln mRNA” value ([4]; EC d4 + 15 µM 48 h, Fig 8C) was 1.16 Fold of EC d4 or d6. For the same molecule, the “Tjp1 mRNA” value ([4]; EC d4 + 15 µM 48 h, Fig 8C) was 1.26 Fold of EC d4 or d6 and the “Ldlr mRNA” value ([4]; EC d4 + 15 µM 48 h, Fig 8F) was 1.78 Fold of untreated control.
